From patent publication US8536337B2, “Solid forms of methyl (7aS,2′S)-2-(2-chlorophenyl)-2-(2,4,5,6,7,7a-hexahydrothieno[3,2-c]-5-pyridin-2-one)acetate” (IPCA Laboratories Limited, priority 2012, dated 2013)
Structures can show the parent of a compound that is named as a salt. Where two headings read alike, the source gives them in different places.

Tests used:
[1] = system: ADP induced platelet aggregation; experiment: Measurement of platelet aggregation with ADP, ex vivo whole blood impedance aggregometry after oral dosing; format: in vivo, rat; conditions: SD rats, blood 4 h after dosing, 10 μM ADP; for % aggregation: vehicle control = 100%
Procedure: Measurement of Platelet Aggregation with ADP
The activity on the aggregation of plates induced by ADP or collagen was determined ex-vivo.
The products as a suspension in 5% Gum Arabica (aq.) were administered by oral route to groups of six male rats of the SD strain, weighing 250-300 g. After 4 hours of the administration, 2 ml of blood is collected into the heparinized tubes by puncture of retro-orbital sinus. 0.5 ml of the anticoagulated blood is diluted with an equal volume of isotonic saline solution and incubated at 37° C. for 10 minutes. To the incubated whole blood, 10 μM ADP is added and the change in impedance (Ω), which reflects platelet aggregation, is recorded for 8 minutes with Chronolog Whole Blood Aggregometer (Model 592, Chrono-log Corp., USA). The percentage inhibition of platelet aggregation is calculated by the following formula considering the vehicle control reading as 100%:

[2] = system: FeCl3 induced arterial thrombus formation (common carotid artery); experiment: FeCl3 induced Arterial Thrombosis Model; format: in vivo, rat; conditions: SD rats, 30% FeCl3 1 hour post dosing
Procedure: 2. Anti-Thrombotic Activity
The antithrombotic activity has also been studied in FeCl3 induced Arterial Thrombosis Model according to standard procedures reported by William A. Schumacher et al., 2007 (Journal of Pharmacology and Experimental Therapeutics, 322 (I): 369-377) and Takao Tanaka et al. 2000 (European Journal of Pharmacology, 401: 413-418).
The products were dissolved in DMSO (1 mg/ml) and diluted in PEG/Water (Ratio: DMSO:PEG:Water=5:50:45), and were administered by the per oral mute to groups of 8 male rats of the SD strain, weighing 250-300 g after overnight fast. 1 hour post dosing, rats were anesthetized with Ketamine (100 mg/kg; i.p.), Xylazine (10 mg/kg; i.p) and placed on a heating pad. After aseptic preparation of the tracheal and scapular region of the rats, a midline incision of the tracheal area was made and a blunt dissection was performed to expose the common carotid artery. Approximately 2 cm of the common carotid artery was freed from the connective tissues, jugular veins, and vagus nerve and a ˜3 mm filter paper, briefly soaked in 30% FeCl3 solution, was placed around the artery for 10 min. The artery was isolated after 15 mins of the removal of filter paper and the rat was euthanized. Thrombus developed was scraped out from the extracted artery and kept for drying for 24 hours. The wet and dry weight of thrombus was recorded and expressed as mg weight of thrombus per kg body weight. % inhibition of the thrombus formation is calculated using the formula: […]

[3] = Stability of the isolated isomer against conversion into mixture of isomers (keto-enol tautomerism); format: physicochemical; conditions: normal conditions, even in solutions
Excerpt: The present invention is realized by way of preferential stereoselective crystallization of one of the isomer {(7aS,2′S)-isomer} from a mixture of isomers with or without dynamic conversion of counter stereo-isomer {(7aR,2′S)-isomer} through enol form. 2-oxo-clopidogrel can exists in three isomeric forms, namely structures of formula II, Formula VI and Formula VII. […] Once the double bond in the ring flips between the tetrahydropyridine nucleus and the thiophene ring, it destroys the chiral centre at 7a position, especially during its formation, resulting in mixture of isomers. Therefore, to date, there are no reports available to exclusively isolate one of the isomer selectively. […] The compounds of the present invention are substantially free of other isomers for example, compound of Formula VI, and Formula VII, apart from isomer of Formula IIB. Substantially free herein means the levels of these compounds individually or cumulatively are less than 10%, preferably less than, 5%, more preferably less than 3%, still more preferably, less than 1.0%.

[4] = system: recurrent ischemic events / major bleeding events; conditions: cited from earlier work
[5] = system: ADP induced platelet aggregation; conditions: cited from earlier work; for time until 50% inhibition of ADP induced platelet aggregation is reached: LTA, 5 μM ADP ex-vivo
rat = conditions: in rat; cited from earlier work
[6] = cited from earlier work
[7] = 2.2 mg/kg p.o. (1.98 mg/kg base)
[8] = 1.3 mg/kg p.o. (1.17 mg/kg base)
[9] = patients at high risk of vascular events
[10] = combined with Aspirin therapy in patients with ACS

In the case of `COC(=O)[C@H](c1ccccc1Cl)N1CCC2SC(=O)C=C2C1.Cl` (stereo partly drawn) [(2'S)-2-oxoclopidogrel hydrochloride], the “% inhibition” value [1, 7] is reported as 48.04% and the “% aggregation” value [1, 7] is reported as 51.96%.
With `COC(=O)C(c1ccccc1Cl)N1CCC2SC(=O)C=C2C1` [(7aS,2'S)-2-oxoclopidogrel bisulphate, Methyl (7aS,2′S)-2-(2-chlorophenyl)-2-(2,4,5,6,7,7a-hexahydrothieno[3,2-c]-5-pyridin-2-one)acetate hydrogen sulfate] the “% aggregation” value ([1]; 2.5 mg/kg p.o. (1.9 mg/kg base)) was 14.57%, the “% aggregation” value ([1]; 3.5 mg/kg p.o. (2.7 mg/kg base)) was 9.14% and the inhibition at 2.5 mg/kg ([1]; Rattus norvegicus, Platelet, po, 2.5 mg/kg p.o. (1.9 mg/kg base)) was 85.4%. The inhibition at 3.5 mg/kg ([1]; Rattus norvegicus, Platelet, po, 3.5 mg/kg p.o. (2.7 mg/kg base)) was 90.9%, the “% Inhibition of Thrombus Formation (Mean ± SEM)” value [2, 8] was 76 ± 3.3% and the “Dry weight of Thrombus (mg/kg) (Mean ± SEM)” value [2, 8] was 0.98 ± 0.1 mg/kg.
In the case of `COC(=O)C(c1ccccc1Cl)N1CCC2SC(=O)C=C2C1` [(7aS,2′S)-2-oxoclopidogrel, Methyl (7aS,2′S)-2-(2-chlorophenyl)-2-(2,4,5,6,7,7a-hexahydrothieno[3,2-c]-5-pyridin-2-one)acetate], the “stability against conversion into mixture of isomers” value [3] is reported as “stable and resistant to conversion into mixture”.
For `CC(=O)Oc1ccccc1C(=O)O` [Aspirin], the “Absolute risk increase (ARI), major bleeding events” value [4, 9] is listed as “about 0.5%”, the “absolute risk reduction (ARR), recurrent ischemic events” value [4, 9] is listed as “about 2%” and the “increase in the odds of major bleeding events” value [4, 9] is listed as “about 60%”. The “reduction of the risk of recurrent ischemic events” value [4, 9] was 22%.
In the case of `COC(=O)[C@H](c1ccccc1Cl)N1CCc2sccc2C1` [Clopidogrel bisulphate], the “% aggregation” value ([1]; 25 mg/kg p.o. (19.15 mg/kg base)) is reported as 22.85%, the inhibition at 25 mg/kg ([1]; Rattus norvegicus, Platelet, po, 25 mg/kg p.o. (19.15 mg/kg base)) is reported as 77.2% and the “% Inhibition of Thrombus Formation (Mean ± SEM)” value ([2]; 4 mg/kg p.o. (3.06 mg/kg base)) is reported as 73 ± 5.3%. For the same compound, the “Dry weight of Thrombus (mg/kg) (Mean ± SEM)” value ([2]; 4 mg/kg p.o. (3.06 mg/kg base)) was 1.10 ± 0.2 mg/kg.
For `CC(=O)Oc1cc2c(s1)CCN(C(C(=O)C1CC1)c1ccccc1F)C2` (stereo not drawn) [Prasugrel hydrochloride], the “% aggregation” value ([1]; 2.2 mg/kg p.o. (2 mg/kg base)) was 18.93% and the inhibition at 2.2 mg/kg ([1]; Rattus norvegicus, Platelet, po, 2.2 mg/kg p.o. (2 mg/kg base)) was 81.1%.
In the case of `COC(=O)[C@H](c1ccccc1Cl)N1CCc2sccc2C1` [clopidogrel, (+)-(S)-methyl2-(2-chlorophenyl)-2-(6,7-dihydrothieno[3,2-c]pyridin-5(4H)-yl)acetate], the “inhibition of ADP induced platelet aggregation” value ([5]; 900 mg, at 5 μM ADP) is listed as 60%, the “inhibition of platelet aggregation” value ([5]; 900 mg, induced by 20 μM of ADP (ex vivo)) is listed as “less than 50%” and the “time until 50% inhibition of ADP induced platelet aggregation is reached” value ([5]; dose 600 mg) is listed as 2 h. For the same compound, the “time until 50% inhibition of ADP induced platelet aggregation is reached” value ([5]; loading dose of 300 mg) was 4 to 6 h, the lethal dose (rat) was “about 5000 mg per kg” and the “share converted to clopidogrel acid in vivo” value [6] was 90%. For the same compound, the “ARR, recurrent ischemic events” value [4, 10] was “about 2.1%” and the “further reduction of the risk of recurrent ischemic events” value [4, 10] was 20%.
